Measured values: ChEMBL document CHEMBL4177731, “Synthesis, in vitro α-glucosidase inhibitory activity and docking studies of novel chromone-isatin derivatives” (Bioorg Med Chem Lett, 2018)

Test: Inhibition of Saccharomyces cerevisiae alpha-glucosidase pre-incubated for 15 mins before p-nitrophenyl alpha-D-glucopyranoside substrate addition and measured after 30 mins by spectrophotometry
Work on O=C1/C(=N\N=C\c2coc3ccccc3c2=O)c2ccccc2N1Cc1cccc(F)c1 yielded an IC50 of 16 µM.
For O=C1/C(=N\N=C\c2coc3ccccc3c2=O)c2ccccc2N1Cc1ccccc1Cl, the IC50 was 13.5 µM.
O=C1/C(=N\N=C\c2coc3cc(O)ccc3c2=O)c2ccccc2N1Cc1ccccc1Cl showed an IC50 of 5.51 µM.
In the case of O=C1/C(=N\N=C\c2coc3cc(O)ccc3c2=O)c2ccccc2N1Cc1ccc(F)cc1, the IC50 is reported as 3.82 µM.
O=C1Nc2ccccc2/C1=N/N=C/c1coc2ccccc2c1=O showed an IC50 of 16.2 µM.
CN1C(=O)/C(=N\N=C\c2coc3ccccc3c2=O)c2ccccc21 showed an IC50 of 11.8 µM.
In the case of O=C1/C(=N\N=C\c2coc3cc(O)ccc3c2=O)c2ccccc2N1Cc1ccc(Br)cc1, the IC50 is reported as 3.18 µM.
With O=C1/C(=N\N=C\c2coc3cc(O)ccc3c2=O)c2ccccc2N1Cc1ccc(Cl)cc1Cl the IC50 was 4.25 µM.
In the case of O=C1/C(=N\N=C\c2coc3cc(O)ccc3c2=O)c2ccccc2N1Cc1ccccc1Br, the IC50 is reported as 4.73 µM.
For O=C1/C(=N\N=C\c2coc3ccccc3c2=O)c2ccccc2N1Cc1ccc(F)cc1, the IC50 was 9.8 µM.
Work on O=C1/C(=N\N=C\c2coc3ccccc3c2=O)c2ccccc2N1Cc1ccccc1F yielded an IC50 of 14 µM.
In the case of O=C1/C(=N\N=C\c2coc3cc(O)ccc3c2=O)c2ccccc2N1Cc1ccccc1F, the IC50 is reported as 4.57 µM.
In the case of O=C1/C(=N\N=C\c2coc3ccccc3c2=O)c2ccccc2N1Cc1ccc(Cl)cc1, the IC50 is reported as 16.6 µM.
Compound O=C1/C(=N\N=C\c2coc3ccccc3c2=O)c2ccccc2N1Cc1ccc(Br)cc1 has an IC50 of 8.17 µM.
Compound O=C1/C(=N\N=C\c2coc3cc(O)ccc3c2=O)c2ccccc2N1Cc1ccc(Cl)cc1 has an IC50 of 3.9 µM.
O=C1/C(=N\N=C\c2coc3cc(O)ccc3c2=O)c2ccccc2N1Cc1cccc(F)c1 gave an IC50 of 4.17 µM.
